Data from ChEMBL document CHEMBL1122063, “Renin inhibitors. Substitution of the leucyl residues of Leu-Leu-Val-Phe-OCH3 with 3-amino-2-hydroxy-5-methylhexanoic acid” (J Med Chem, 1982).
pKi: −log10 of the molar value.

target: T1, Renin (Homo sapiens, UniProt P00797); test: Competitive inhibition of renin from human amniotic […]
T1 sequence (P00797 whole entry): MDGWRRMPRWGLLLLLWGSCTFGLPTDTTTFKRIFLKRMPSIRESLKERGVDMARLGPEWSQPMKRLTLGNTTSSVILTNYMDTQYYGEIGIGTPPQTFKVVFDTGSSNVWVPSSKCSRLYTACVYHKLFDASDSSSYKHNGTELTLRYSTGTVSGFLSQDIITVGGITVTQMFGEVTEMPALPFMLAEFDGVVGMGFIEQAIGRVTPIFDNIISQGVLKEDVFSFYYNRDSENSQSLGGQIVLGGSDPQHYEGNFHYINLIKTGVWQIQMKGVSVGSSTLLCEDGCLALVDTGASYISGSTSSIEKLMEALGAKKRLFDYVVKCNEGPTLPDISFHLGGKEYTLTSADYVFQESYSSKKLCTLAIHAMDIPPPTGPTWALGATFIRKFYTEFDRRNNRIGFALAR

| Structure (SMILES) | pKi |
| --- | --- |
| COC(=O)[C@H](Cc1ccccc1)NC(=O)[C@@H](NC(=O)[C@H](CC(C)C)NC(=O)[C@@H](O)[C@@H](N)CC(C)C)C(C)C | 3.02 |
| COC(=O)[C@H](Cc1ccccc1)NC(=O)[C@@H](NC(=O)[C@H](O)[C@@H](N)CC(C)CC(=O)[C@@H](N)CC(C)C)C(C)C (stereo partly specified) | 3.36 |
| COC(=O)[C@H](Cc1ccccc1)NC(=O)[C@@H](NC(=O)[C@@H](O)[C@@H](N)CC(C)CC(=O)[C@@H](N)CC(C)C)C(C)C (stereo partly specified) | 3.28 |
| COC(=O)[C@H](Cc1ccccc1)NC(=O)[C@@H](NC(=O)[C@@H](CC(C)C)NC(=O)[C@H](O)[C@@H](N)CC(C)C)C(C)C | 2.82 |
| COC(=O)[C@H](Cc1ccccc1)NC(=O)[C@@H](NC(=O)[C@H](O)[C@@H](N)CC(C)C)C(C)C | 3.00 |
| COC(=O)[C@H](Cc1ccccc1)NC(=O)[C@@H](NC(=O)[C@@H](O)[C@@H](N)CC(C)C)C(C)C | 2.61 |
